Reference: patent US20250268931A1, “TRANSCRIPTIONAL INHIBITOR FOR IMMUNE-RELATED GENE” (The University of Tokyo, priority 2022, published 2025)

Experiments:
[1] = test system: Ifnb1, Il6, and Tnf genes; assay: Relative mRNA expression in Poly(I:C)-stimulated peritoneal macrophages (qRT-PCR); assay type: cell-based, mice; conditions: 6 μM 24 h, Poly(I:C) 1 μg/mL 2, 4 or 6 h, qRT-PCR relative to GAPDH
Procedure: Using PBS, peritoneal macrophages were harvested from mice, and were then seeded on a 96-well plate at a cell density of 2.5×10^5 cells/well, followed by culturing for 2 hours. Thereafter, the cultured cells were washed twice with PBS. IRF-PIPA 3 was suspended in a 10% FBS-RPMI or MEM medium to a final concentration of 6 μM, and the obtained suspension was then added to the cells. After completion of the culture for 24 hours, Poly(I:C) was added to the cultured cells to a final concentration of 1 μg/mL. The obtained mixture was cultured for 2, 4, or 6 hours, and the cells were recovered. Using TRIsure, the recovered cells were suspended at 100 µL/well and was then recovered. Thereafter, the relative expression levels of Ifnb1, Il6, and Tnf genes were measured by qRT-PCR.
Mouse peritoneal macrophages were harvested from 6-week-old CL57B/6 mice (CLEA Japan, Inc.) by peritoneal lavage using 7 mL of PBS (Nacalai Tesque), and the cells adhered to the culture plate by culture for 2 hours were used in experiments. The culture was carried out using an RPMI or D-MEM medium (Nacalai Tesque) containing 10% FBS (SIGMA-ALDRICH) and Penicillin-Streptomycin mixed solution (Nacalai Tesque). The CL57B/6 mice were bred in an SPF environment.
2.5×10^5 Peritoneal macrophages were seeded on a plate, and were then treated with IRF-PIPA 3 for 24 hours. […]

peritoneal macrophages = assay: Cytotoxic activity: dsDNA concentration and LDH activity in culture supernatant; assay type: cell-based, mice
Procedure: In order to verify the cytotoxic activity of IRF-PIPA 3, dsDNA concentration (left view in the figure) and LDH concentration (right view in the figure) in the culture supernatant were measured. The same experiment as that in FIG. 2 was carried out, and the culture supernatant was recovered. A lysate obtained by mixing 2.5×10^5 peritoneal macrophages with 90 μL of 10% FBS-RPMI or D-MEM medium and 10 μL of Lysis Buffer, and then disrupting the cells, was used as a positive control. […] Using Octet K2, the binding of each concentration of IRF-PIPA 3 shown in the figure and a target DNA sequence was analyzed. After mixing a PIPA solution with target DNA, the binding of the two substances was measured for 60 seconds. […] From changes in the binding and dissociation at each concentration over time, a Kd value was calculated as a dissociation constant indicating a binding force.
The concentration of dsDNA in the culture supernatant was measured using Nano drop one (Thermo Fisher SCIENTIFIC). In LDH assay, LDH activity was measured using Cytotoxicity LDH Assay Kit-WST (DOJINDO LABORATORIES) according to standard protocols. As a positive control, a lysate obtained by mixing 2.5×10^5 peritoneal macrophages with 90 μL of 10% FBS-RPMI or D-MEM medium and 10 μL of Lysis Buffer, and then disrupting the cells, was used.

RBD = RBD concentration in plasma after mRNA vaccine plus Poly(I:C) (ELISA); assay type: in vivo, mice; conditions: 400 μg/mouse i.m. or i.p., 24 h later mRNA vaccine 1 μg/mouse i.m. plus Poly(I:C) 250 μg/mouse, blood one day later
IFN-β, IL-6 and TNF-α = assay: In vivo cytokine protein concentration in plasma after Poly(I:C) (ELISA); parameters: species or system mice
Procedure: […] Two hours after the administration of Poly(I:C), blood was collected, and individual protein concentrations of IFN-β, IL-6 and TNF-α in the plasma were then measured by an ELISA method.
2×10^4 Raw264.7 cells were seeded on a plate, and were then treated with IRF-PIPA 1, IRF-PIPA 2, IRF-PIPA 3 or IRF-PIPA 4 for 24 hours. Thereafter, the cells were stimulated with LPS (Lipopolysaccharide, SIGMA-ALDRICH) for 16 hours, and the culture supernatant was then recovered. The concentration of cytokine in the culture supernatant was measured using ELISA kit (R&D SYSTEMS) according to the standard protocols. The culture supernatant was diluted with 1% BSA-PBS, as necessary, and was then analyzed. 2.5×10^5 Mouse peritoneal macrophages were seeded on a plate, and were then treated with IRF-PIPA 3 for 16 or 24 hours. Thereafter, the cells were stimulated with Poly(I:C) (InvivoGen) for 16 hours or with mRNA vaccine (Moderna) for 20 to 24 hours, and the culture supernatant was then recovered. The concentration of cytokine in the culture supernatant was measured using ELISA kit (R&D SYSTEMS) according to the same standard protocols. On the other hand, the concentration of cytokine in mouse plasma was measured by administering 400 μg/mouse IRF-PIPA 3 into the abdominal cavity of wild-type mice, then administering 250 μg of Poly(I:C) into the same abdominal cavity 24 hours after the IRF-PIPA 3 administration, then collecting blood further 2 hours after the Poly(I:C) administration, and then measuring the cytokine concentration in the plasma using ELISA kit (R&D SYSTEMS) according to standard protocols.

IFN-β = IFN-β transcription in peritoneal macrophages treated with mRNA vaccine against SARS-COV-2 (qRT-PCR, ELISA); assay type: cell-based, mice; conditions: 3 μM or 10 μM, mRNA vaccine (Moderna) 1 μg/mL 20 hours
[2] = peritoneal macrophages, same experiment as FIG. 2 (3 or 10 μM)
[3] = 400 μg/mouse i.p., Poly(I:C) 250 μg/mouse i.p. 24 hours, 1, 4 or 7 days later, blood 2 h later
[4] = plasma IFN-β, IL-6, TNF-α, Poly(I:C) 1, 4 or 7 days after IRF-PIPA 3

CC(=O)Nc1cn(C)c(C(=O)Nc2cc(C(=O)NCCC(=O)Nc3cc(C(=O)Nc4cn(C)c(C(=O)NCCC(=O)Nc5cn(C)c(C(=O)NCCCC(=O)Nc6cc(C(=O)Nc7cc(C(=O)Nc8cc(C(=O)NCCC(=O)Nc9cc(C(=O)Nc%10cc(C(=O)NCCC(=O)NCCCN(C)C)n(C)c%10)n(C)c9)n(C)c8)n(C)c7)n(C)c6)n5)n4)n(C)c3)n(C)c2)n1 [IRF-PIPA 3]
relative expression level of Ifnb1 mRNA [1]: strongly suppressed induction of the expression of Ifnb1 mRNA in a concentration-dependent manner | cytotoxic activity (peritoneal macrophages; concentration range in which IRF-PIPA 3 shows strong suppressive action): does not exhibit cytotoxic activity | LDH activity in the culture supernatant (peritoneal macrophages; [2]): not increased at all | amount of DNA in the culture supernatant (peritoneal macrophages; [2]): not increased at all | concentration of the RBD protein in plasma (RBD): a decrease in the concentration of the RBD protein caused by Poly(I: C) was suppressed | IFN-β protein concentration in plasma (IFN-β, IL-6 and TNF-α; [3]): significantly suppressed | IL-6 protein concentration in plasma (IFN-β, IL-6 and TNF-α; [3]): significantly suppressed | TNF-α protein concentration in plasma (IFN-β, IL-6 and TNF-α; [3]): significantly suppressed | time after administration of highest suppressive effect (IFN-β, IL-6 and TNF-α; [4]): 1 days | time after administration until which the suppressive effect was sustained (attenuated) (IFN-β, IL-6 and TNF-α; [4]): ≥ 7 days | IFN-b transcription after addition of the mRNA vaccine (Ifnb1 relative expression, IFN-β concentration) (IFN-β): strongly suppressed IFN-b transcription after addition of the mRNA vaccine in a concentration-dependent manner
